In patent USRE41209E1, “Platinum complexes” (Genzyme Corporation, priority 1996, dated 2010):
Where two headings read alike, the source gives them in different places.

Tests used:
41M = test: Inhibition of cell proliferation, human cancer cell lines in culture (41M); format: cell-based; conditions: read-out: concentration necessary to achieve a 50% decrease in cell proliferation
A2780R = test: Inhibition of cell proliferation, human cancer cell lines in culture (A2780R); format: cell-based
Description: (§1) The complexes of the invention were tested against human cancer cell lines grown in cell culture according to established testing procedures (described by Kelland et al, Cancer Research 53, 2581-2586, June 1993). […] The results are given in concentrations (μM) necessary to achieve a 50% decrease in cell proliferation, with resistance factors in brackets for the cisplatin-resistant cell lines.

41MR = test: Inhibition of cell proliferation, human cancer cell lines in culture (41MR); format: cell-based
Description: as §1

A2780 = test: Inhibition of cell proliferation, human cancer cell lines in culture (A2780); format: cell-based
SKOV3 = test: Inhibition of cell proliferation, human cancer cell lines in culture (SKOV3); format: cell-based
Description: as §1

CH1R = test: Inhibition of cell proliferation, human cancer cell lines in culture (CH1R); format: cell-based
Description: as §1

HX62 = test: Inhibition of cell proliferation, human cancer cell lines in culture (HX62); format: cell-based
Description: as §1

CH1 = test: Inhibition of cell proliferation, human cancer cell lines in culture (CH1); format: cell-based
CH1 xenograft = CH1 xenograft antitumour activity; format: in vivo; conditions: for antitumour effect and tumour regrowth in the CH1 xenograft: derived from cell line sensitive to cisplatin
Source text: It has been reported by Tobe et al (Wadley Medical Bulletin 7, 1, 114-135) that steric effects of bulky substituents close to the platinum atom have a profound effect upon the rate of substitution reactions there. At that time no systematic study of the way in which variation of the substituent on the primary amine affects the rate and extend of bonding of the Pt complex to DNA had been undertaken.

ADJ/PC6 = ADJ/PC6 tumour mass reduction in Balb C mice; format: in vivo
[1] = mouse, in vivo, po
[2] = inherently cisplatin sensitive line
[3] = A2780R, bred to be resistant to cisplatin; read-out: concentration necessary to achieve a 50% decrease in cell proliferation
[4] = 41MR, bred to be resistant to cisplatin; read-out: concentration necessary to achieve a 50% decrease in cell proliferation
[5] = A2780; read-out: concentration necessary to achieve a 50% decrease in cell proliferation
[6] = SKOV3, inherently resistant to cisplatin; read-out: concentration necessary to achieve a 50% decrease in cell proliferation
[7] = SKOV3 IC50 divided by the IC50 for the 41M line
[8] = CH1R, bred to be resistant to cisplatin; read-out: concentration necessary to achieve a 50% decrease in cell proliferation
[9] = HX62, inherently resistant to cisplatin; read-out: concentration necessary to achieve a 50% decrease in cell proliferation
[10] = HX62 IC50 divided by the IC50 for the 41M line
[11] = CH1; read-out: concentration necessary to achieve a 50% decrease in cell proliferation
[12] = Homo sapiens; read-out: concentration necessary to achieve a 50% decrease in cell proliferation
[13] = Homo sapiens, read-out: concentration necessary to achieve a 50% decrease in cell proliferation

Compound	IC50 (41M; [2]) [µM]	resistance factor (A2780R; A2780R versus A2780)	IC50 (A2780R; [3]) [µM]	resistance factor (41MR; 41MR versus 41M)	IC50 (41MR; [4]) [µM]	IC50 (A2780; [5]) [µM]	IC50 (SKOV3; [6]) [µM]	resistance factor (SKOV3; [7])	resistance factor (CH1R; CH1R versus CH1)	IC50 (CH1R; [8]) [µM]	IC50 (HX62; [9]) [µM]	resistance factor (HX62; [10])	IC50 (CH1; [11]) [µM]	other results
N.N.O=C([O-])C1(C(=O)[O-])CCC1.[Pt+2] [Carboplatin, reference compound]	3.3	(14)	37.4	(2.7)	8.8	2.6	37.7	(11)	(4.6)	6	85	(26)	1.3	
N.N.[Cl][Pt][Cl] [Cisplatin, [PtCl2 (NH3)2], reference compound]	0.41	(22)	7.8	(4.6)	1.9	0.35	4.3	(10.5)	(3.7)	0.44	15.5	(37.8)	0.12	antitumour effect and tumour regrowth in the CH1 xenograft (CH1 xenograft): significant activity at the maximum tolerated dose, however the tumour does grow back; ED90; dose required to reduce tumour mass by 90% (ADJ/PC6; ADJ/PC6, Daily × 5 (i.p.)): 0.2 mg/kg; ED90; dose required to reduce tumour mass by 90% (ADJ/PC6; ADJ/PC6, Single dose (i.p.)): 1.6 mg/kg; ED90; dose required to reduce tumour mass by 90% (ADJ/PC6; ADJ/PC6, Single dose (p.o.)): 24 mg/kg
Cc1cccc[n+]1[Pt-2]([NH3+])([Cl])[Cl] [Example 1, (SP-4-3)-amminedichloro(2-methylpyridine) platinum(II)]	4.1	(3.4)	4.4	(1.2)	5	1.28	17.5	(4.3)	(1.9)	3.7	40	(9.8)	1.9	histological evidence of organ toxicity (mice receiving a LD10 dose): No significant histological evidence of liver, kidney, spleen, gastrointestinal tract, brain or skin toxicity; levels of ALP, ALT, gut disaccharides maltose, sucrose and trehalose, urea and creatinine compared to control mice (treated mice (LD50 dose)): no significant differences; LD50; dose causing 50% lethality [1]: 560 mg/kg; antitumour effect and tumour regrowth in the CH1 xenograft (CH1 xenograft): exhibits a curative effect, and the tumour does not grow back; potency in the CH1 xenograft compared with cisplatin (CH1 xenograft; greater dose is required than cisplatin): slightly less potency; ED90; dose required to reduce tumour mass by 90% (ADJ/PC6; ADJ/PC6, Daily × 5 (i.p.)): 0.8 mg/kg; ED90; dose required to reduce tumour mass by 90% (ADJ/PC6; ADJ/PC6, Single dose (i.p.)): 3 mg/kg; ED90; dose required to reduce tumour mass by 90% (ADJ/PC6; ADJ/PC6, Single dose (p.o.)): 6.2 mg/kg
CCc1ccccn1 [Example 2, 2-ethylpyridine]		(2.5)		(1.7)				(2.9)	(2.6)			(10)		IC50 (41M; Homo sapiens): 3.4 µM; IC50 (A2780R; [12]): 11 µM; IC50 (41MR; [12]): 5.7 µM; IC50 (A2780; Homo sapiens, A2780; read-out: concentration necessary to achieve a 50% decrease in cell proliferation): 4.4 µM; IC50 (SKOV3; Homo sapiens, SK-OV-3; read-out: concentration necessary to achieve a 50% decrease in cell proliferation): 20 µM; IC50 (CH1R; [12]): 3.6 µM; IC50 (HX62; Homo sapiens, HX62; read-out: concentration necessary to achieve a 50% decrease in cell proliferation): 36 µM; IC50 (CH1; Homo sapiens, CH1; read-out: concentration necessary to achieve a 50% decrease in cell proliferation): 1.4 µM
Cc1ccnc(C)c1.N.[Cl][Pt][Cl] [Example 4, (SP-4-3)-amminedichloro(2,4-dimethylpyridine)platinum(II)]	4.25		18	(0.4)	1.9	6.6	14	(3)	(2.3)	5.3	4.9	(1)	2.3	
CC(C)c1ccccn1 [Example 5, 2-isopropylpyridine]		(3.6)		(0.9)				(3.3)	(1.7)			(8)		IC50 (41M; Homo sapiens): 6.1 µM; IC50 (A2780R; [13]): 14 µM; IC50 (41MR; [13]): 5.6 µM; IC50 (A2780; Homo sapiens, A2780, read-out: concentration necessary to achieve a 50% decrease in cell proliferation): 3.9 µM; IC50 (SKOV3; Homo sapiens, SK-OV-3, read-out: concentration necessary to achieve a 50% decrease in cell proliferation): 20 µM; IC50 (CH1R; [13]): 4.2 µM; IC50 (HX62; Homo sapiens, HX62, read-out: concentration necessary to achieve a 50% decrease in cell proliferation): 49 µM; IC50 (CH1; Homo sapiens, CH1, read-out: concentration necessary to achieve a 50% decrease in cell proliferation): 2.4 µM
Cc1cc[n+]([Pt-2]([NH3+])([OH])([OH])([Cl])[Cl])c(C)c1 [Example 7, (OC-6-43)-amminedichlorodihydroxo(2,4-dimethylpyridine)platinum(IV)]	8	(2.1)	30	(2.2)	17.5	14	47	(5.9)	(2.5)	8.9	72	(9)	3.1	
